Laboratory results: patent US20240158446A1, “CYCLIC COMPOUND HAVING SELECTIVE INHIBITORY ACTION ON KRAS OVER HRAS AND NRAS” (CHUGAI SEIYAKU KABUSHIKI KAISHA, priority 2021, published 2024)
*1 amine or outer side, *2 acyl side, *3 side chain or, on linkers, in order; H or OH if unused. Where a SMILES comes first, the peptide text is derived from it. Bridges are numbered along the chain shown (N, C = ends). [ ]: non-standard residue; d: D form. The star is where a group is joined. hPhe(3-Cl-4-CF3) = N[C@@H](CCc1ccc(C(F)(F)F)c(Cl)c1)C(=O)O; X6 = CCCN([C@@H](COCCC(C)C)C(=O)[*:2])[*:1]; X2 = CCCN([C@@H](COC1CCC1)C(=O)[*:2])[*:1]; NMeGly(cPent) = CN[C@H](C(=O)O)C1CCCC1; NMeD = CN[C@@H](CC(=O)O)C(=O)O; NMeL = CN[C@@H](CC(C)C)C(=O)O; Morpholide = C1CN(*)CCO1; Ac4c = NC1(C(=O)O)CCC1; Sar = CNCC(=O)O

Tests used:
[1] = tested on: human lung cancer strain NCI-H441; test: cells; details: NCI-H441, 96 h, read-out: NCI-H441 IC50 (nM), NCI-H441 cell proliferation, 4 days, CellTiter-Glo;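 also: cell proliferation inhibition after four days measured by CellTiter-Glo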
[2] = biological target: GDP-bound HRAS wild-type protein (Homo sapiens, UniProt P01112); test: Binding to HRAS by surface plasmon resonance (SPR), Single Cycle Kinetics; details: ratio of KD for GDP-bound HRAS wild-type protein to KD for KRAS, SPR
[3] = biological target: GDP-bound KRAS wild-type protein (Homo sapiens, UniProt P01116); test: Binding to KRAS by surface plasmon resonance (SPR), Single Cycle Kinetics; details: SPR, Single Cycle Kinetics, GDP-bound KRAS wild-type protein; read-out: KRAS KD
[4] = biological target: GDP-bound NRAS wild-type protein (Homo sapiens, UniProt P01111); test: Binding to NRAS by surface plasmon resonance (SPR), Single Cycle Kinetics; details: ratio of KD for GDP-bound NRAS wild-type protein to KD for KRAS, SPR
GDP-bound NRAS wild-type protein, sequence (P01111 whole entry): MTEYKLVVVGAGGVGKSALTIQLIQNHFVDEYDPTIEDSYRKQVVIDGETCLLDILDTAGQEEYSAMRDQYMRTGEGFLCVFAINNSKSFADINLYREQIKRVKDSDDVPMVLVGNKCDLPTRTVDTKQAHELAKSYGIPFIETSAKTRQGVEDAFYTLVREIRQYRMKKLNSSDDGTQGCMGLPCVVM

GDP-bound KRAS wild-type protein, sequence (P01116 whole entry): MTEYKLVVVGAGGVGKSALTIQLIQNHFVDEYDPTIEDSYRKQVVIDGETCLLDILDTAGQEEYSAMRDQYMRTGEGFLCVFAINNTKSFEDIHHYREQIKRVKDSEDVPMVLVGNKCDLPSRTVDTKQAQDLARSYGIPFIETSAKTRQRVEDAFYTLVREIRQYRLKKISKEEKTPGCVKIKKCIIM
GDP-bound HRAS wild-type protein, sequence (P01112 whole entry): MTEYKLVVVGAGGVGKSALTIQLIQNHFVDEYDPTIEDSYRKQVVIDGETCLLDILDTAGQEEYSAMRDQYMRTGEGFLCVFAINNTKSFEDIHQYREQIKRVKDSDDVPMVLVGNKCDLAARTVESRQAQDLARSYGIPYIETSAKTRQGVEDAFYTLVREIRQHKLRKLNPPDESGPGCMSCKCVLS

Row | Structure (SMILES) | IC50 [1] [nM] | HRAS/KRAS (KD ratio) [2] | Kd [3] [nM] | NRAS/KRAS (KD ratio) [4]
1 | CCO[C@@H]1C[C@H]2C(=O)NC3(CC(F)(F)C3)C(=O)N(C)[C@@H](C3CCCC3)C(=O)N(C)[C@H](C(=O)N(C)C)CC(=O)N(C)[C@@H](CC(C)C)C(=O)N[C@@H]([C@@H](C)CC)C(=O)N(C)CC(=O)N(C)[C@H]3C/C=C\CCN(C3=O)[C@@H](Cc3ccc(C(F)(F)F)cc3)C(=O)N(C)CC(=O)N[C@@H](CCc3cc(F)c(C(F)(F)F)c(F)c3)C(=O)N2C1 [PP1741] | 2.3 | B (a compound having 3 or more and less than 10 is denoted as B) | 0.039 | A (a compound having 10 or more and less than 20 is denoted as A)
2 | CCC[C@H]1C(=O)N[C@@H]([C@@H](C)CC)C(=O)N(C)CC(=O)N(C)[C@H]2C/C=C\CCN(C2=O)[C@@H](Cc2ccc(C)cc2)C(=O)N(C)CC(=O)N[C@@H](CCc2ccc(C(F)(F)F)c(OC)c2)C(=O)N2C[C@@H](C)C[C@H]2C(=O)NC2(CC(C)(C)C2)C(=O)N(C)[C@@H](C2CCCC2)C(=O)N(C)[C@H](C(=O)N(C)CC)CC(=O)N1C [PP1889] | 12.5 | B (a compound having 3 or more and less than 10 is denoted as B) | 0.21 | A (a compound having 10 or more and less than 20 is denoted as A)
3 | CCCN(C)C(=O)[C@@H]1CC(=O)N(C)[C@@H](CC(F)F)C(=O)N[C@@H]([C@@H](C)CC)C(=O)N(C)CC(=O)N(C)[C@H]2C/C=C\CCN(C2=O)[C@@H](Cc2ccc(C(F)(F)F)cc2)C(=O)N(C)CC(=O)N[C@@H](CCc2cc(F)c(C(F)(F)F)c(F)c2)C(=O)N2C[C@H](OCC)C[C@H]2C(=O)NC2(CC(C)(C)C2)C(=O)N(C)[C@@H](C2CCCC2)C(=O)N1C [PP2030] | 4.5 | A (a compound having 10 or more and less than 20 is denoted as A) | 0.12 | A (a compound having 10 or more and less than 20 is denoted as A)
4 | CCCN(C)C(=O)[C@@H]1CC(=O)N(C)[C@@H](CC(F)F)C(=O)N[C@@H]([C@@H](C)CC)C(=O)N(C)CC(=O)N(C)[C@H]2C/C=C\CCN(C2=O)[C@@H](Cc2ccc(C(F)(F)F)cc2)C(=O)N(C)CC(=O)N[C@@H](CCc2cc(F)c(C(F)(F)F)c(F)c2)C(=O)N2C[C@H](OCC)C[C@H]2C(=O)NC2(CCC2)C(=O)N(C)[C@@H](C2CCCC2)C(=O)N1C [PP1700] | 3.6 | A (a compound having 10 or more and less than 20 is denoted as A) | 0.11 | A (a compound having 10 or more and less than 20 is denoted as A)
5 | CC[C@H](C)[C@@H]1NC(=O)[C@H](CC)N(C)C(=O)C[C@@H](C(=O)N(C)C)N(C)C(=O)[C@H](C2CCCC2)N(C)C(=O)C2(CCCC2)N(C)C(=O)[C@@H]2CCCN2C(=O)[C@H](CCc2cc(F)c(C(F)(F)F)c(F)c2)NC(=O)CN(C)C(=O)[C@H](Cc2ccc(C)cc2)N2CC/C=C\C[C@@H](C2=O)N(C)C(=O)CN(C)C1=O [PP1807] | 5 | B (a compound having 3 or more and less than 10 is denoted as B) | 0.062 | A (a compound having 10 or more and less than 20 is denoted as A)
6 | CC[C@H](C)[C@@H]1NC(=O)[C@H](CC)N(C)C(=O)C[C@@H](C(=O)N(C)C)N(C)C(=O)[C@H](C2CCCC2)N(C)C(=O)C2(CC(C)(C)C2)NC(=O)[C@@H]2C[C@H](C)CN2C(=O)[C@H](CCc2ccc(C(F)(F)F)c(OC)c2)NC(=O)CN(C)C(=O)[C@H](Cc2ccc(C)cc2)N2CC/C=C\C[C@@H](C2=O)N(C)C(=O)CN(C)C1=O [PP1836] | 10.7 | B (a compound having 3 or more and less than 10 is denoted as B) | 0.1 | A (a compound having 10 or more and less than 20 is denoted as A)
7 | CCO[C@@H]1C[C@H]2C(=O)NC3(CC(C)(C)C3)C(=O)N(C)[C@@H](C3CCCC3)C(=O)N(C)[C@H](C(=O)N(C)CC)CC(=O)N(C)[C@@H](CC)C(=O)N[C@@H]([C@@H](C)CC)C(=O)N(C)CC(=O)N(C)[C@H]3C/C=C\CCN(C3=O)[C@@H](Cc3ccc(C)cc3)C(=O)N(C)CC(=O)N[C@@H](CCc3cc(F)c(C(F)(F)F)c(F)c3)C(=O)N2C1 [PP1886] | 1.9 | B (a compound having 3 or more and less than 10 is denoted as B) | 0.12 | A (a compound having 10 or more and less than 20 is denoted as A)
8 | CC[C@H](C)[C@@H]1NC(=O)[C@H](CC)N(C)C(=O)C[C@@H](C(=O)N(C)C)N(C)C(=O)[C@H](C2CCCC2)N(C)C(=O)C2(CCC2)N(C)C(=O)[C@@H]2C[C@@H](C)CN2C(=O)[C@H](CCc2cc(F)c(C(F)(F)F)c(F)c2)NC(=O)CN(C)C(=O)[C@H](Cc2ccc(C)cc2)N2CC/C=C\C[C@@H](C2=O)N(C)C(=O)[C@@H]2CCCN2C1=O [PP1789] | 9.5 | A (a compound having 10 or more and less than 20 is denoted as A) | 0.13 | A (a compound having 10 or more and less than 20 is denoted as A)
9 | CCCN(C)C(=O)[C@@H]1CC(=O)N(C)[C@@H](CC2CC2)C(=O)N[C@@H]([C@@H](C)CC)C(=O)N(C)CC(=O)N(C)[C@H]2C/C=C\CCN(C2=O)[C@@H](Cc2ccc(C(F)(F)F)cc2)C(=O)N(C)CC(=O)N[C@@H](CCc2cc(F)c(C(F)(F)F)c(F)c2)C(=O)N2C[C@H](OCC)C[C@H]2C(=O)NC2(CC(F)(F)C2)C(=O)N(C)[C@@H](C2CCCC2)C(=O)N1C [PP1739] | 5.5 | AA (a compound having 20 or more is denoted as AA) | 0.054 | AA (a compound having 20 or more is denoted as AA)
10 | CCCN1C(=O)CN(C)C(=O)CN(C)C(=O)[C@H]([C@@H](C)CC)NC(=O)[C@H](CC(C)C)N(C)C(=O)C[C@@H](C(=O)N2CCOCC2)N(C)C(=O)[C@H](C2CCCC2)N(C)C(=O)C2(CCC2)NC(=O)[C@@H]2CCCN2C(=O)[C@H](CCc2ccc(C(F)(F)F)c(Cl)c2)NC(=O)CN(C)C(=O)[C@@H]1COC1CCC1 [PP1816] ([NMeL]I[Sar][Sar][X2][Sar][hPhe(3-Cl-4-CF3)]P[Ac4c][NMeGly(cPent)][NMeD]-Morpholide; lactam N-11) | 63.8 | C (A compound having a KD ratio of 0.1 or more and less than 3 is denoted as C) | 1.2 | B (a compound having 3 or more and less than 10 is denoted as B)
11 | CCO[C@@H]1C[C@H]2C(=O)NC3(CC(C)(C)C3)C(=O)N(C)[C@@H](C3CCCC3)C(=O)N(C)[C@H](C(=O)N(C)C)CC(=O)N(C)[C@@H](CC)C(=O)N[C@@H]([C@@H](C)CC)C(=O)N(C)CC(=O)N(C)[C@H]3C/C=C\CCN(C3=O)[C@@H](Cc3ccc(C(F)(F)F)cc3)C(=O)N(C)CC(=O)N[C@@H](CCc3ccc(C(F)(F)F)c(Cl)c3)C(=O)N2C1 [PP1746] | 1.9 | A (a compound having 10 or more and less than 20 is denoted as A) | 0.054 | A (a compound having 10 or more and less than 20 is denoted as A)
12 | CCO[C@@H]1C[C@H]2C(=O)N(C)C3(CCCC3)C(=O)N(C)[C@@H](C3CCCC3)C(=O)N(C)[C@H](C(=O)N(C)C)CC(=O)N(C)[C@@H](C3CC3)C(=O)N[C@@H]([C@@H](C)CC)C(=O)N(C)CC(=O)N(C)[C@H]3C/C=C\CCN(C3=O)[C@@H](Cc3ccc(C)cc3)C(=O)N(C)CC(=O)N[C@@H](CCc3cc(F)c(C(F)(F)F)c(F)c3)C(=O)N2C1 [PP1808] | 8.8 | B (a compound having 3 or more and less than 10 is denoted as B) | 0.084 | A (a compound having 10 or more and less than 20 is denoted as A)
13 | CCCN1C(=O)CN(C)C(=O)CN(C)C(=O)[C@H]([C@@H](C)CC)NC(=O)[C@H](CC(C)C)N(C)C(=O)C[C@@H](C(=O)N2CCOCC2)N(C)C(=O)[C@H](C2CCCC2)N(C)C(=O)C2(CCC2)NC(=O)[C@@H]2CCCN2C(=O)[C@H](CCc2ccc(C(F)(F)F)c(Cl)c2)NC(=O)CN(C)C(=O)[C@@H]1COCCC(C)C [PP1817] ([NMeL]I[Sar][Sar][X6][Sar][hPhe(3-Cl-4-CF3)]P[Ac4c][NMeGly(cPent)][NMeD]-Morpholide; lactam N-11) | 20.4 | C (A compound having a KD ratio of 0.1 or more and less than 3 is denoted as C) | 0.47 | C (A compound having a KD ratio of 0.1 or more and less than 3 is denoted as C)
14 | CCC[C@H]1C(=O)N[C@@H]([C@@H](C)CC)C(=O)N(C)CC(=O)N(C)[C@H]2C/C=C\CCN(C2=O)[C@@H](Cc2ccc(C(F)(F)F)cc2)C(=O)N(C)CC(=O)N[C@@H](CCc2cc(F)c(C(F)(F)F)c(F)c2)C(=O)N2C[C@H](OCC)C[C@H]2C(=O)NC2(CC(F)(F)C2)C(=O)N(C)[C@@H](C2CCCC2)C(=O)N(C)[C@H](C(=O)N(C)CC)CC(=O)N1C [PP1735] | 2.2 | A (a compound having 10 or more and less than 20 is denoted as A) | 0.081 | AA (a compound having 20 or more is denoted as AA)
15 | CCO[C@@H]1C[C@H]2C(=O)N(C)C3(CCC3)C(=O)N(C)[C@@H](C3CCCC3)C(=O)N(C)[C@H](C(=O)N(C)C)CC(=O)N(C)[C@@H](CC)C(=O)N[C@@H]([C@@H](C)CC)C(=O)N3CCC[C@H]3C(=O)N(C)[C@H]3C/C=C\CCN(C3=O)[C@@H](Cc3ccc(C)cc3)C(=O)N(C)CC(=O)N[C@@H](CCc3cc(F)c(C(F)(F)F)c(F)c3)C(=O)N2C1 [PP1785] | 6.9 | A (a compound having 10 or more and less than 20 is denoted as A) | 0.051 | A (a compound having 10 or more and less than 20 is denoted as A)
